Results: PMC6270420, “Antibacterial Activity of Salicylanilide 4-(Trifluoromethyl)benzoates” (Molecules, 2013)
≈ marks a conversion by molar mass, not a printed value. Where two headings read alike, the source gives them in different places.

Key:
[1] = test system: HepG2 cells; assay: Cytotoxicity evaluation (CellTiter 96 MTS); format: cell-based, human; conditions: Homo sapiens, HepG2, 24 h, read-out: IC50 HepG2
Method in brief: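 Human HepG2 cells (passages 21–24) seeded 1 × 10^4/well, treated next day with 0.01–20 µM compound (4-(trifluoromethyl)benzoic acid 10–4,000 µM), triplicates, 24 h at 37 °C. MTS reduction read at 490 nm after 2 h; IC50 = concentration cutting viability to 50% of control.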

[2] = test system: Mycobacterium avium 330/88; assay: Antimycobacterial MIC micromethod; format: cell-based
[3] = test system: Mycobacterium tuberculosis 331/88 (H37Rv); assay: Antimycobacterial MIC micromethod, Šula's medium; format: cell-based
[4] = test system: Staphylococcus aureus CCM 4516/08; assay: Antibacterial microdilution broth method; format: cell-based; conditions: read-out: MIC/IC90 S. aureus CCM 4516/08
Method in brief: (§1)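 Mueller-Hinton broth pH 7.4; M07-A07-based microdilution; cpds in DMSO, final 500–0.49 […]; inoculum 0.5 McFarland; 35 °C, dark, humid, 24 and 48 h; MIC = ≥90% growth reduction vs control, visual + A540.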

[5] = test system: Escherichia coli CCM 4517; assay: Antibacterial microdilution broth method; format: cell-based; conditions: read-out: MIC/IC90 E. coli CCM 4517
Method in brief: as §1

[6] = test system: Enterococcus sp. J 14365/08; assay: Antibacterial microdilution broth method; format: cell-based; conditions: read-out: MIC/IC90 Enterococcus sp. J 14365/08
Method in brief: as §1

[7] = test system: Staphylococcus epidermidis H 6966/08; assay: Antibacterial microdilution broth method; format: cell-based; conditions: read-out: MIC/IC90 S. epidermidis H 6966/08
Method in brief: as §1

[8] = test system: methicillin-resistant Staphylococcus aureus H 5996/08 (MRSA); assay: Antibacterial microdilution broth method; format: cell-based; conditions: read-out: MIC/IC90 MRSA H 5996/08
Method in brief: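 MIC values reflect a 90% or greater drop in growth relative to control, judged by eye and by absorbance at 540 nm. Testing used a modified M07-A07 broth microdilution in pH 7.4 Mueller-Hinton medium over 500–0.49 […] final compound, with 24 h and 48 h incubation at 35 °C.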

[9] = test system: Mtb. 9449/2006; assay: microbe, parasite or virus in culture; format: cell-based; conditions: Mycobacterium tuberculosis, read-out: MIC Mtb. 9449/2006
[10] = 336 h, 14 d, read-out: MIC Mtb. 331/88
[11] = 504 h, 21 d, read-out: MIC Mtb. 331/88
[12] = time not stated, read-out: MIC against M. tuberculosis

O=C(Oc1ccc(Cl)cc1C(=O)Nc1ccc(Cl)c(Cl)c1)c1ccc(C(F)(F)F)cc1 [1e]
IC50 [1]: 3.13 µM
MIC ([2]; 330/88, 336 h, 14 d): 4 µM (≈ 1.95 µg/mL)
MIC ([2]; 330/88, 504 h, 21 d): 4 µM (≈ 1.95 µg/mL)
MIC [3, 10]: 1 µM (≈ 0.489 µg/mL)
MIC [3, 11]: 1 µM (≈ 0.489 µg/mL)
MIC [3, 12]: 1 µM (≈ 0.489 µg/mL)
MIC ([4]; CCM4516, 24 h): 0.49 µM (≈ 0.239 µg/mL)
MIC ([4]; CCM4516, 48 h): 0.98 µM (≈ 0.479 µg/mL)
MIC ([5]; CCM4517, 24 h): > 500 µM
MIC ([5]; CCM4517, 48 h): > 500 µM
MIC ([6]; SP.J14365/08, 24 h): 0.49 µM (≈ 0.239 µg/mL)
MIC ([6]; SP.J14365/08, 48 h): 3.9 µM (≈ 1.91 µg/mL)
MIC ([7]; H6966/08, 24 h): 0.49 µM (≈ 0.239 µg/mL)
MIC ([7]; H6966/08, 48 h): 0.98 µM (≈ 0.479 µg/mL)
MIC ([8]; 24 h): 0.49 µM (≈ 0.239 µg/mL)
MIC ([8]; 48 h): 0.98 µM (≈ 0.479 µg/mL)
MIC ([9]; 336 h): 2 µM (≈ 0.977 µg/mL)
MIC ([9]; 504 h): 2 µM (≈ 0.977 µg/mL)

O=C(Oc1cc(Cl)ccc1C(=O)Nc1ccc(Br)cc1)c1ccc(C(F)(F)F)cc1 [1j]
IC50 [1]: 4.82 µM
MIC ([2]; 330/88, 336 h, 14 d): 8 µM (≈ 3.99 µg/mL)
MIC ([2]; 330/88, 504 h, 21 d): 8 µM (≈ 3.99 µg/mL)
MIC [3, 10]: 2 µM (≈ 0.997 µg/mL)
MIC [3, 11]: 4 µM (≈ 1.99 µg/mL)
MIC ([4]; CCM4516, 24 h): 0.49 µM (≈ 0.244 µg/mL)
MIC ([4]; CCM4516, 48 h): 0.98 µM (≈ 0.489 µg/mL)
MIC ([5]; CCM4517, 24 h): 250 µM (≈ 125 µg/mL)
MIC ([5]; CCM4517, 48 h): > 250 µM
MIC ([6]; SP.J14365/08, 24 h): 1.95 µM (≈ 0.972 µg/mL)
MIC ([6]; SP.J14365/08, 48 h): 7.81 µM (≈ 3.89 µg/mL)
MIC ([7]; H6966/08, 24 h): 0.49 µM (≈ 0.244 µg/mL)
MIC ([7]; H6966/08, 48 h): 0.98 µM (≈ 0.489 µg/mL)
MIC ([8]; 24 h): 0.49 µM (≈ 0.244 µg/mL)
MIC ([8]; 48 h): 0.98 µM (≈ 0.489 µg/mL)
MIC ([9]; 336 h): 2 µM (≈ 0.997 µg/mL)
MIC ([9]; 504 h): 2 µM (≈ 0.997 µg/mL)

O=C(Oc1ccc(Cl)cc1C(=O)Nc1ccc(C(F)(F)F)cc1)c1ccc(C(F)(F)F)cc1 [1o, 4-chloro-2-[4-(trifluoromethyl)phenylcarbamoyl]phenyl 4-(trifluoromethyl)benzoate]
IC50 [1]: 1.33 µM
MIC ([2]; 330/88, 336 h, 14 d): 1 µM (≈ 0.488 µg/mL)
MIC ([2]; 330/88, 504 h, 21 d): 4 µM (≈ 1.95 µg/mL)
MIC [3, 10]: 1 µM (≈ 0.488 µg/mL)
MIC [3, 11]: 1 µM (≈ 0.488 µg/mL)
MIC [3, 12]: 1 µM (≈ 0.488 µg/mL)
MIC ([4]; CCM4516, 24 h): 3.9 µM (≈ 1.9 µg/mL)
MIC ([4]; CCM4516, 48 h): 7.81 µM (≈ 3.81 µg/mL)
MIC ([5]; CCM4517, 24 h): > 125 µM
MIC ([5]; CCM4517, 48 h): > 125 µM
MIC ([6]; SP.J14365/08, 24 h): 7.81 µM (≈ 3.81 µg/mL)
MIC ([6]; SP.J14365/08, 48 h): 62.5 µM (≈ 30.5 µg/mL)
MIC ([7]; H6966/08, 24 h): 3.9 µM (≈ 1.9 µg/mL)
MIC ([7]; H6966/08, 48 h): 7.81 µM (≈ 3.81 µg/mL)
MIC ([8]; 24 h): 3.9 µM (≈ 1.9 µg/mL)
MIC ([8]; 48 h): 7.81 µM (≈ 3.81 µg/mL)
MIC ([9]; 336 h): 1 µM (≈ 0.488 µg/mL)
MIC ([9]; 504 h): 1 µM (≈ 0.488 µg/mL)
